Patent US20220117929A1, “METHOD FOR PREVENTING OR TREATING HIGH-GRADE SEROUS CARCINOMA” (Buddhist Tzu Chi Medical Foundation, priority 2020, published 2022)
Values after ≈ are worked out from the molar mass of the structure shown. Where two headings read alike, the source gives them in different places.

How the values were obtained:
ordinary kuramochi cells = experiment: XTT cell viability assay, ordinary kuramochi cells; type: cell-based; details: Homo sapiens
Description: Kuramochi cells is a high-grade serous ovarian carcinoma (HGSOC) cell line purchased from Japan Cell Bank. Gene expressions of this cell line was previously confirmed to be mimicking HGSOC (Domcke, S.; Sinha, R.; Levine, D. A.; Sander, C.; Schultz, N. Nat. Commun. 2013, 4, 2126). The cell line was maintained in Dulbecco's Modified Eagle Medium (DMEM; Sigma, St. Louis, Mo., USA) supplemented with 10% fetal bovine serum (FBS), 0.1% non-essential amino acids (NEAA), 2 mM L-glutamine, and 1% penicillin-streptomycin. The cells were incubated at 37° C. with 5% CO2.
(§1) The half-maximal inhibitory concentration (IC50) of BP is determined in ALDH^+ and ordinary kuramochi cells. IC50 is determined by assessing the cell viability under different concentration of BP. For example, cell viability was determined by XTT assay (Biological Industries Ltd., Kibbutz Beit Haemek, Israel) following the instruction provided by the manufacturer. […] After 2-5 h of incubation at 37° C., plates were analyzed by spectrophotometry to determine the optical density of the solutions at a wavelength of 450 nm (reference wavelength, 650 nm) to determine viable cell number. […] The equation is expressed as follows: Y=d+(a−d)/(1+(X/c)^B), where Y is the response, and X is the concentration. […]

ALDH^+ kuramochi cells [1] = experiment: XTT cell viability assay, ALDH+ kuramochi cells (cancer stem cells); type: cell-based; details: Homo sapiens, 48 h, BP 0-400 μg/ml
Description: To evaluate and characterize the kuramochi cells, the expression of the cancer stem cell (CSC) marker, ALDH, was assessed using flow cytometry. Specifically, fluorescence-activated cell sorting (FACS) was used to isolate ALDH^+ cells from the kuramochi cell line. Then, the Aldefluor assay kit (Stem Cell Technologies, Cambridge, Mass., USA) was used to determine the ALDH activity. The activated Aldefluor reagent was used to trypsinized and incubated with cells for 50 min at 37° C. Cells were incubated with the inhibitor, N,N-diethylaminobenzaldehyde (DEAB), as control cells to identify for ALDH^+ and ALDH^− cell populations. […]
as §1

ALDH^+ kuramochi cells [2] = experiment: Boyden chamber (transwell) cell migration assay; type: cell-based, human; details: 48 hours, vs untreated cells
Description: For assessment of cell migration, kuramochi cells (5×10^4 cells) were seeded into the top well of a Boyden chamber (24-well transwell) with a pore size of 8 m (Costar, Corning Inc., Corning, N.Y., USA). The cells were allowed to migrate toward the lower well filled with the same culture medium with BP at a concentration of 100 or 200 μg/ml or without BP treatment. After 48 hours of migration, crystal violet (Sigma) was used to stain the migrated cells. The stained cells were counted using a bright-field microscope. Each experiment was repeated three times.

ALDH^+ kuramochi cells [3] = experiment: Matrigel-coated Boyden chamber invasion assay; type: cell-based, human; details: 24 hours, vs untreated cells
Description: For assessment of cell invasion, the invasion assays were carried out in Matrigel-coated Boyden chambers (filter pore size, 8 μM) in 24-well plates (BD). In the top wells, culture medium without serum was seeded with 5×10^4 cells. The bottom wells were added with medium containing 10% FBS and BP (0, 100, or 200 μg/ml). Treatments were added to both upper and lower chambers as indicated. After 24 hours, the free cells were removed gently with a cotton swab. The invading cells were fixed with 4% formaldehyde and Giemsa stained. The slides were air-dried and photographed, and the cells were counted.

ALDH^+ kuramochi cells [4] = experiment: TUNEL apoptosis assay in cultured cells; type: cell-based, human; details: BP 200 μg/ml for 48 hours vs no BP, p<0.01
Description: (§2) The level of apoptosis was compared between ALDH^+ kuramochi cells with and without BP treatment using the terminal deoxynucleotidyl transferase dUTP nick end labeling (TUNEL) assay. TUNEL assay was carried out to evaluate cell apoptosis using a TUNEL Assay Kit (Roche, Ind., USA) according to the manufacturer's instructions. Specifically, ALDH^+ kuramochi cells were seeded with 1×10^5 cells in each well of 12-well culture plates. Cultured cells were allowed to attach for 24 hours, and then treated with 200 μg/ml of BP for 48 hours. Adherent tumor cells were fixed in 4% paraformaldehyde. TUNEL probes were used to detect breaks in DNA strands, followed by incubation in a permeabilization solution for 2 min on ice. Cells were washed twice in phosphate buffered saline (PBS) and the TUNEL reaction mixture was added, followed by incubation at 37° C. for 60 min in a humidified atmosphere in the dark. Samples were washed in PBS twice and observed under a fluorescence microscope.

ALDH^+ kuramochi cells [5] = experiment: Western blot of cleaved caspases in cultured cells; type: cell-based, human; details: BP 100 μg/ml or 200 μg/ml, 48 hours
Description: Accordingly, the effect of BP on the apoptotic signaling pathway was further investigated by quantifying the amount of activated caspase proteins by western blot analysis. […] The cell lysates were loaded onto a gradient 5-20% sodium dodecyl sulfate-polyacrylamide gradient gel. After electrophoretic separation, the proteins were transferred to a polyvinylidene difluoride membrane (Bio-Rad). The membrane was blocked at room temperature in a solution of 3% non-fat dry milk in PBS and 0.1% Tween-20 and then rinsed in PBS/0.1% Tween-20. Blots were incubated with diluted solutions of polyclonal anti-caspase 3 and 8, or anti-cleaved caspase 3, 7, 8, or 9 antibodies (1:200, St. John's Lab, London, UK) and treated with 1:5000 diluted anti-rabbit immunoglobulin G horseradish peroxidase (HRP) for staining (Amersham GE, Taipei, Taiwan). Beta-actin and tubulin proteins (Santa Cruz Biotechnology, Santa Cruz, Calif., USA) were used as internal controls. HRP signals were detected using an electrochemiluminescence kit (Promega, Fitchburg, Wis., USA).

ALDH^+ kuramochi cells [6] = experiment: XTT viability, BP combined with cisplatin or paclitaxel; type: cell-based, human; details: 72 hours
Description: To determine whether BP affects the toxicity of these chemotherapeutic agents, BP was added to cisplatin and paclitaxel treatment of ovarian cancer cells in vitro. ALDH^+ kuramochi cells (2500 ALDH^+ cells/well) in a 96-well plate were treated with BP (25 μg/ml) in combination with cisplatin (0, 5, or 10 μM) or with paclitaxel (0, 10 or 50 nM). Each experiment was conducted in triplicate. Plates were incubated at 37° C. with 5% CO2 for 72 hours. Viable cells were counted by the XTT assay as describe above.

[7] = system: ALDH^+ kuramochi xenograft; experiment: Subcutaneous xenograft tumor growth and histology in NOD-SCID mice; type: in vivo
Description: To investigate tumor growth in vivo, the subcutaneous xenograft model is used widely in the research and allows easy detection of tumor growth and size. Herein, human ovarian cancer xenografts were used to investigate the tumor-inhibiting effect of BP in mice. The animal experiment procedures were approved by the Animal Research and Care Committee of the Buddhist Tzu Chi General Hospital (106-48). All procedures were performed in compliance with the National Institutes Health Guide for the Care and Use of Laboratory Animals. Non-obese, diabetic-severe combined immune deficiency mice (NOD-SCID) (strain NOD.CB17-Prkdcscid/JTcu) purchased from Tzu Chi University were used for these experiments.
ALDH^+ kuramochi cells (1×10^6) were injected subcutaneously into the backs of 4 to 5-week-old female mice. After tumors had grown to a volume of 50 mm^3, mice were separated into two groups (control and treatment groups; n=6 in each group). Controls were treated with vehicle alone (10% dimethyl sulfoxide (DMSO), 20% ethanol in PBS), and the experimental group was treated with different doses of BP (100 or 200 mg/kg) for 5 days. Tumor dimensions (length and width) were measured with calipers, and the tumor volume was determined using the following formula: volume=½ (length×width^2). […] The morphology and cell density were observed and recorded.

[8] = system: ALDH^+ kuramochi xenograft; experiment: TUNEL assay of xenograft tumor tissue; type: in vivo, mice; details: BP 200 mg/kg, p<0.001
Description: as §2
With BP treatment (200 mg/kg), the tumor volumes were smaller than those of control mice treated with the vehicle starting from day 11 to day 26 (p<0.001), as shown in FIG. 7A. […] TUNEL assay was also carried out to evaluate cell viability in the xenograft tumors, using the reagents and procedures as described above but with tumor tissue fixed in formalin and embedded in paraffin and sectioned with a 3 m of thickness. […]

[9] = system: ALDH^+ kuramochi xenograft; experiment: Western blot of caspases in xenograft tumors; type: in vivo, mice; details: xenograft treated with BP vs control without BP
Description: Accordingly, the effect of BP on the apoptotic signaling pathway was further investigated by quantifying the amount of activated caspase proteins by western blot analysis. Specifically, ALDH^+ kuramochi cells were treated with BP (at 100 μg/ml for 48 hours) and lysed. The cell lysates were loaded onto a gradient 5-20% sodium dodecyl sulfate-polyacrylamide gradient gel. After electrophoretic separation, the proteins were transferred to a polyvinylidene difluoride membrane (Bio-Rad). The membrane was blocked at room temperature in a solution of 3% non-fat dry milk in PBS and 0.1% Tween-20 and then rinsed in PBS/0.1% Tween-20. Blots were incubated with diluted solutions of polyclonal anti-caspase 3 and 8, or anti-cleaved caspase 3, 7, 8, or 9 antibodies (1:200, St. John's Lab, London, UK) and treated with 1:5000 diluted anti-rabbit immunoglobulin G horseradish peroxidase (HRP) for staining (Amersham GE, Taipei, Taiwan). Beta-actin and tubulin proteins (Santa Cruz Biotechnology, Santa Cruz, Calif., USA) were used as internal controls. HRP signals were detected using an electrochemiluminescence kit (Promega, Fitchburg, Wis., USA).
With BP treatment (200 mg/kg), the tumor volumes were smaller than those of control mice treated with the vehicle starting from day 11 to day 26 (p<0.001), as shown in FIG. 7A. […] TUNEL assay was also carried out to evaluate cell viability in the xenograft tumors, using the reagents and procedures as described above but with tumor tissue fixed in formalin and embedded in paraffin and sectioned with a 3 m of thickness. Also, protein levels of cleaved caspase 3, caspase 9, and caspase 7 were examined using western blots as described above to examine apoptotic pathway activation in xenograft tumors.

CCCC=C1OC(=O)c2ccccc21 [BP, n-butylidenephthalide]
IC50 (ordinary kuramochi cells; 48 h of culture, BP 0-240 μg/ml, read-out: IC50 of BP for the ordinary kuramochi cells (figure legend)): 206 µg/mL (≈ 1100 µM) | IC50 (ordinary kuramochi cells; 48 h of treatment, XTT, 4PL fit, read-out: IC50 of BP for ordinary kuramochi cells): 206 µg/mL (≈ 1100 µM) | IC50 (ALDH^+ kuramochi cells [1]): 317 µg/mL (≈ 1690 µM) | migration of ALDH^+ cells (ALDH^+ kuramochi cells [2]; BP 100 μg/ml, p<0.01): significantly decreased | migration of ALDH^+ cells (ALDH^+ kuramochi cells [2]; BP 200 μg/ml, p<0.001): significantly decreased | invasion of ALDH^+ cells (ALDH^+ kuramochi cells [3]; BP 100 μg/ml, p<0.01): significantly decreased | invasion of ALDH^+ cells (ALDH^+ kuramochi cells [3]; BP 200 μg/ml, p<0.001): significantly decreased | TUNEL^+ cells (ALDH^+ kuramochi cells [4]): Significantly more | protein level of cleaved caspase 7 (ALDH^+ kuramochi cells [5]): increased | protein level of cleaved caspase 8 (ALDH^+ kuramochi cells [5]): increased | protein level of cleaved caspase 9 (ALDH^+ kuramochi cells [5]): increased | protein level of cleaved caspase 3 (ALDH^+ kuramochi cells [5]; p<0.001): increased | cell viability with cisplatin plus BP vs cisplatin without BP (ALDH^+ kuramochi cells [6]; BP 25 μg/ml with cisplatin 0, 5 or 10 μM, 5 μM p<0.05, 0 and 10 μM p<0.01): significantly lowered | numbers of viable cells with paclitaxel plus BP vs paclitaxel without BP (ALDH^+ kuramochi cells [6]; BP 25 μg/ml with zero or low concentration of paclitaxel (0, 10 nM), p<0.01): significantly less | tumor volumes vs vehicle control ([7]; BP 200 mg/kg for 5 days, day 11 to day 26, p<0.001): smaller | nuclei of xenograft tumors (H & E staining) vs control ([7]; BP-treated xenograft tumors): denser | TUNEL^+ cells in xenograft tumors [8]: significantly more | protein level of caspase 7 in xenograft [9]: increased | protein level of caspase 9 in xenograft [9]: increased | protein level of cleaved caspase 3 in xenograft [9]: increased
